Our source for the melting point and Emax values is patent US8318746B2, “Nitrogen-containing five-membered heterocyclic compound” (Takeda Pharmaceutical Company Limited, priority 2007, dated 2012).

As a reminder, the melting point is the temperature, or range, at which the solid turns liquid. For orientation: Emax means the size of the effect at its maximum, as opposed to the concentration needed.

System in one data set: not given
Test: not given
Conditions: not given
On to `O=C(O)Cc1cnc(-c2ccc(C(CC3CCOCC3)c3ccc(S(=O)(=O)C4CC4)cc3)[nH]2)s1` (centres unmarked) [Example 149, [2-(5-{1-[4-(cyclopropylsulfonyl)phenyl]-2-(tetrahydro-2H-pyran-4-yl)ethyl}-1H-pyrrol-2-yl)-1,3-thiazol-5-yl]acetic acid], for which the melting point is 246 to 247 °C (dec.).
Still for that read-out and setting: then `O=Cc1cnc(-c2ccc(C(CC3CCOCC3)c3ccc(S(=O)(=O)C4CC4)cc3)[nH]2)s1` (centres unmarked) [Example 158, 2-(5-{1-[4-(cyclopropylsulfonyl)phenyl]-2-(tetrahydro-2H-pyran-4-yl)ethyl}-1H-pyrrol-2-yl)-1,3-thiazole-5-carbaldehyde], with 175 to 176 °C; and `CC(O)c1cnc(-c2ccc(C(CC3CCOCC3)c3ccc(S(=O)(=O)C4CC4)cc3)[nH]2)s1` (centres unmarked) [Example 166, Optically Active Form of 1-[2-(5-{1-[4-(cyclopropylsulfonyl)phenyl]-2-(tetrahydro-2H-pyran-4-yl)ethyl}-1H-pyrrol-2-yl)-1,3-thiazol-5-yl]ethanol], with 105 to 106 °C; and `CC(O)c1cnc(-c2ccc(C(CC3CCOCC3)c3ccc(S(=O)(=O)C4CC4)cc3)[nH]2)s1` (centres unmarked) [Example 167, Optically Active form of 1-[2-(5-{1-[4-(cyclopropylsulfonyl)phenyl]-2-(tetrahydro-2H-pyran-4-yl)ethyl}-1H-pyrrol-2-yl)-1,3-thiazol-5-yl]ethanol], with 112 to 114 °C.
Still for that read-out and setting: then `CC(O)c1cnc(-c2ccc(C(CC3CCOCC3)c3ccc(S(=O)(=O)C4CC4)cc3)[nH]2)s1` (centres unmarked) [Example 168, Optically Active Form of 1-[2-(5-{1-[4-(cyclopropylsulfonyl)phenyl]-2-(tetrahydro-2H-pyran-4-yl)ethyl}-1H-pyrrol-2-yl)-1,3-thiazol-5-yl]ethanol], with 115 to 116 °C; and `COC(=O)Nc1cc(-c2nccs2)[nH]c1C(CC1CCOCC1)c1ccc(S(=O)(=O)C2CC2)cc1` (centres unmarked) [Example 181, Methyl [2-{1-[4-(cyclopropylsulfonyl)phenyl]-2-(tetrahydro-2H-pyran-4-yl)ethyl}-5-(1,3-thiazol-2-yl)-1H-pyrrol-3-yl]carbamate], with 120 to 122 °C.
`CS(=O)(=O)c1ccc(C(CC2CCOCC2)c2cnc(-c3ccccn3)[nH]2)cc1Cl` (centres unmarked) [Example 183, 2-(5-{1-[3-chloro-4-(methylsulfonyl)phenyl]-2-(tetrahydro-2H-pyran-4-yl)ethyl}-1H-imidazol-2-yl)pyridine]: the melting point was 106 to 109 °C.
Compound `O=S(=O)(c1ccc(C(CC2CCOCC2)c2ccc(-c3nnc(CO)s3)[nH]2)cc1)C1CC1` (centres unmarked) [Example 206, [5-(5-{1-[4-(cyclopropylsulfonyl)phenyl]-2-(tetrahydro-2H-pyran-4-yl)ethyl}-1H-pyrrol-2-yl)-1,3,4-thiadiazol-2-yl]methanol] yielded a melting point of 208.5 to 208.6 °C.
Same read-out and setting: then `CC(C)(O)C(O)c1ccc(-c2ccc(/C(=C/C3CCOCC3)c3ccc(S(=O)(=O)C4CC4)cc3)[nH]2)nc1` (centres unmarked) [Example 220, 1-(6-{5-[(E)-1-[4-(cyclopropylsulfonyl)phenyl]-2-(tetrahydro-2H-pyran-4-yl)ethenyl]-1H-pyrrol-2-yl}pyridin-3-yl)-2-methylpropane-1,2-diol], with 196 to 197 °C.
Same read-out and setting: in the case of `CS(=O)(=O)c1ccc(C(CC2CCOCC2)c2ccc(-c3nnc(CO)s3)[nH]2)cc1` (centres unmarked) [Example 221, [5-(5-{1-[4-(methylsulfonyl)phenyl]-2-(tetrahydro-2H-pyran-4-yl)ethyl}-1H-pyrrol-2-yl)-1,3,4-thiadiazol-2-yl]methanol] it was 199 to 201 °C; in that of `CC(CC1CCOCC1)(c1ccc(S(C)(=O)=O)cn1)c1ccc(-c2ccccn2)[nH]1` (centres unmarked) [Example 245, 2-[1-methyl-1-(5-(pyridin-2-yl)-1H-pyrrol-2-yl)-2-(tetrahydro-2H-pyran-4-yl)ethyl]-5-(methylsulfonyl)pyridine], 135 to 136 °C.

In the next data set the target is T1, GST-hLGK1 (GST added to the amino terminal of human liver GK) (Homo sapiens, UniProt P35557).
T1 construct: with a BamHI site added to immediately before the initiation codon; made in house; host or cells: Escherichia coli BL21 (Stratagene), plasmid pGEX6P-2/hLGK1
T1 sequence (P35557 1-464 isoform P35557-3): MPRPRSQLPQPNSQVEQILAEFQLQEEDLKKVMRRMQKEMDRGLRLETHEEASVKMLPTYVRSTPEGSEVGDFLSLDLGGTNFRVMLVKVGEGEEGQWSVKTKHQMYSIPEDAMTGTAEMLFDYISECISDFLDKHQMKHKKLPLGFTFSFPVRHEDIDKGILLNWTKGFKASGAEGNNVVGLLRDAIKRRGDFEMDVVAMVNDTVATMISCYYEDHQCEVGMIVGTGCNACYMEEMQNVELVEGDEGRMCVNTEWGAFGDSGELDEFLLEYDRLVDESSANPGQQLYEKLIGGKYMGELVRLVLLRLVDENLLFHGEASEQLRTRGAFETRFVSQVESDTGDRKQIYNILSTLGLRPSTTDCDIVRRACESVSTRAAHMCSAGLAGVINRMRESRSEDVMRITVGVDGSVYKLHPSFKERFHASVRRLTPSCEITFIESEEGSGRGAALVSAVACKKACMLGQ
As to the kind of experiment: Measurement of GK activation value. The data set is classed as biochemical. The conditions noted are these: test compound final concentration 10 μmol/L; reaction rate divided by that of control group (50% DMSO without test compound); Mant-ATP substrate, D-glucose, 37° C., 60 min. The procedure: To each well of a 384-well black plate (Nalge Nunc International K.K.) was added 5 μL of 50% dimethyl sulfoxide solution containing test compound diluted to 100 μmol/L. Then, GST-hLGK1 obtained in Reference Example 2A was diluted with measurement buffer (containing 50 mM HEPES (pH 7.4), 200 mM KCl, 5 mM MgCl2, 2.5 mM DTT and 50 μM 2′-(or-3′)—O—(N-methylanthraniloyl) adenosine 5′-triphosphate (Mant-ATP) (Jena BioScience)) to 6 μg/mL and 35 μL thereof was added to each well.
Each well was stood at 37° C. for 10 min, 25 mM D-glucose solution (10 μL) was added to start the reaction. The final concentration of the test compound was 10 μmol/L.
Each, well after the reaction was stood at 37° C. for 60 min, and the reaction was quenched by adding 25 μL of a quenching solution (containing 200 mM HEPES (pH 7.4), 20 mM MgCl2, 200 mM EDTA, 0.03% Triton-X 100, 0.3% Coating 3 reagent (Caliper Life Sciences, Inc.)).
2′-(or-3′)-O-(N-methylanthraniloyl)adenosine 5′-triphosphate (Mant-ATP, substrate) and Mant-ADP (reaction resultant product) were separated from each well after the reaction by a microchip type capillary electrophoresis apparatus 250 HTS (Caliper Life Sciences, Inc.). The reaction rate [(reaction resultant product peak height)/(reaction resultant product peak height+substrate peak height)×100(%)] was calculated from the ratio of the substrate peak height and reaction resultant product peak height obtained by fluorescence detection (excitation wavelength 355 nm, measurement wavelength 460 nm) and used as the index of GK activity.
As a control group, the reaction rate was calculated in the same manner as above except that “solution in 50% dimethyl sulfoxide (without test compound)” was used instead of “solution of test compound in 50% dimethyl sulfoxide”.
The reaction rate of the well (test compound addition group) added with the test compound was divided by the reaction rate of the control group and the obtained percentage was taken as the GK activation value (Emax) of the test compound.
Consider `CS(=O)(=O)c1ccc(C(CC2CCCC2)c2ccc(-c3nccs3)[nH]2)cc1` (centres unmarked) [Example 1, 2-(5-{2-cyclopentyl-1-[4-(methylsulfonyl)phenyl]ethyl}-1H-pyrrol-2-yl)-1,3-thiazole], for which the Emax at 10 µM was found to be 195%.
On the same count and under the same terms, in the case of `CS(=O)(=O)c1ccc(C(CC2CCCC2)c2ccc(-c3ccccn3)[nH]2)cc1` (centres unmarked) [Example 2, 2-(5-{2-cyclopentyl-1-[4-(methylsulfonyl)phenyl]ethyl}-1H-pyrrol-2-yl)pyridine] it was 168%; in that of `CS(=O)(=O)c1ccc(C(CC2CCCC2)c2ccc(-c3cnccn3)[nH]2)cc1` (centres unmarked) [Example 3, 2-(5-{2-cyclopentyl-1-[4-(methylsulfonyl)phenyl]ethyl}-1H-pyrrol-2-yl)pyrazine], 180%; in that of `Cn1ccnc1-c1ccc(C(CC2CCCC2)c2ccc(S(C)(=O)=O)cc2)[nH]1` (centres unmarked) [Example 4, 2-(5-{2-cyclopentyl-1-[4-(methylsulfonyl)phenyl]ethyl}-1H-pyrrol-2-yl)-1-methyl-1H-imidazole], 227%.
Take `Cn1cnc(-c2ccc(C(CC3CCCC3)c3ccc(S(C)(=O)=O)cc3)[nH]2)c1` (centres unmarked) [Example 5, 4-(5-{2-cyclopentyl-1-[4-(methylsulfonyl)phenyl]ethyl}-1H-pyrrol-2-yl)-1-methyl-1H-imidazole]: the Emax at 10 µM was found to be 167%.
Still for that read-out and setting: then `Cn1ccc(-c2ccc(C(CC3CCCC3)c3ccc(S(C)(=O)=O)cc3)[nH]2)n1` (centres unmarked) [Example 6, 3-(5-{2-cyclopentyl-1-[4-(methylsulfonyl)phenyl]ethyl}-1H-pyrrol-2-yl)-1-methyl-1H-pyrazole], with 198%.
The same measure, in the same setting: in the case of `O=S(=O)(c1ccc(C(CC2CCOCC2)c2ccc(-c3nccs3)[nH]2)cc1)C1CC1` (centres unmarked) [Example 7, 2-{5-[1-[4-(cyclopropylsulfonyl)phenyl]-2-(tetrahydro-2H-pyran-4-yl)ethyl]-1H-pyrrol-2-yl}-1,3-thiazole] it was 179%.
Still for that read-out and setting: in the case of `CCOC(=O)c1[nH]c(C(CC2CCCC2)c2ccc(S(C)(=O)=O)cc2)cc1C` (centres unmarked) [Example 8, Ethyl 5-{2-cyclopentyl-1-[4-(methylsulfonyl)phenyl]ethyl}-3-methyl-1H-pyrrole-2-carboxylate] it was 225%; in that of `Cc1cc(C(CC2CCCC2)c2ccc(S(C)(=O)=O)cc2)[nH]c1C(=O)O` (centres unmarked) [Example 9, 5-{2-cyclopentyl-1-[4-(methylsulfonyl)phenyl]ethyl}-3-methyl-1H-pyrrole-2-carboxylic acid], 173%.
Consider `Cc1cc(C(CC2CCCC2)c2ccc(S(C)(=O)=O)cc2)[nH]c1C(N)=O` (centres unmarked) [Example 10, 5-{2-cyclopentyl-1-[4-(methylsulfonyl)phenyl]ethyl}-3-methyl-1H-pyrrole-2-carboxamide], for which the Emax at 10 µM is 193%.
On the same count and under the same terms, then `Cc1cc(C(CC2CCCC2)c2ccc(S(C)(=O)=O)cc2)[nH]c1-c1nccs1` (centres unmarked) [Example 11, 2-(5-{2-cyclopentyl-1-[4-(methylsulfonyl)phenyl]ethyl}-3-methyl-1H-pyrrol-2-yl)-1,3-thiazole], with 160%; and `CC(C)C(=O)c1[nH]c(C(CC2CCCC2)c2ccc(S(C)(=O)=O)cc2)nc1F` (centres unmarked) [Example 14, 1-(2-{2-cyclopentyl-1-[4-(methylsulfonyl)phenyl]ethyl}-4-fluoro-1H-imidazol-5-yl)-2-methylpropan-1-one], with 185%.
